Experimental data reported in patent publication US11325937B2, “Glycoside compound and preparation method therefor, composition, application, and intermediate” (SHANGHAI HUTCHISON PHARMACEUTICALS LIMITED, priority 2018, dated 2022).
Read-outs that look alike come from different tables or passages of the source.

Tested on: VEGF-A mRNA expression in macrophages (RAW264.7)
Assay: In vitro macrophage experiment: activity of compounds to promote VEGF-A mRNA expression (RT-qPCR)
Type: cell-based
Conditions: Mus musculus, read-out: Expression level of VEGF-A mRNA
Description: 1.1. Specific steps for activity screening: 1-10×10^6 macrophages (RAW264.7) in logarithmic growth phase were transferred to a cell culture plate. The test compounds (Compounds TG-001, TG-002, TG-003, TG-004, TG-005, TG-006, TG-007, TG-008, TG-009, TG-010, TG-011, TG-012, TG-013, TG-014, TG-015, TG-016, TG-017, TG-018, TG-019, TG-020, TG-021, TG-022, TG-023, TG-024, TG-025, TG-026, TG-027, TG-028, TG-029, TG-030, TG-031, TG-032, TG-033, TG-034, TG-035, TG-036, TG-037, TG-045, TG-039, TG-040 TG-041, TG-042, TG-043, TG-044, TG-045, TG-052, TG-053, TG-054, TG-047, TG-048, TG-046, TG-049, TG-050, TG-051, TG-055 and TG-056) were respectively diluted into various concentrations, and separately added to the cell culture plate containing macrophage. The cells were cultured for 3 h in a complete medium (RPMI 1640 medium:fetal bovine serum:tri-resistance screening agent (i.e. penicillin-streptomycin-gentamicin, Beijing Leagene Biotechnology Co., Ltd.)=89:10:1 based on volume) in a cell incubator at 37° C. and 5% CO2. The cells were lyzed by Trizol (Beijing ComWin Biotech Co., Ltd) to extract RNA, and the RNA concentration was measured using a microvolume nucleic acid and protein analyzer (Nanodrop2000c). The required volume V of RNA was calculated according to the RNA concentration, and the RNA reverse transcription reaction system was prepared according to Table 1. Then RNA reverse transcription (cDNA synthesis) (RT Easy™ I (For first-strand cDNA synthesis) Reverse Transcription Kit, Chengdu ForeGene Biotechnology Co., Ltd.) was carried out according to the conditions described in Table 2. The resulting cDNA was used to prepare a fluorescence quantitative PCR reaction solution according to Table 3. The fluorescence quantitative PCR reaction conditions were set according to Table 4, and the fluorescence quantitative PCR reaction (Real time PCR Easy™-SYBR Green Fluorescence Quantification Kit, Chengdu ForeGene Biotechnology Co., Ltd.) was performed using cDNA from the reverse transcription reaction as a template. The relative expression level 2^−ΔΔCt of the target gene was calculated from the Ct value of each sample with the blank control group as a control and β-Actin as an internal reference.
Based on the maximum level of VEGF-A mRNA expression promoted by a drug at a certain concentration, the activity of the drug was determined. The expression level of VEGF-A mRNA in macrophages was defined as 1 when no drug was added. Using a traditional Chinese medicine injection Salvianolate that is used in the treatment of Cardio-cerebrovascular disease and promotes a maximum level of VEGF-A mRNA expression of 6 in macrophages (the results are shown in Table 5) as a judgment standard, the compound promoting a maximum level of VEGF-A mRNA expression of 4 or more in macrophage was a target compound. That is, when the maximum level of VEGF-A mRNA expression in macrophages promoted by the test compound is over 4-fold higher than the expression level of VEGF-A mRNA in macrophages without the addition of the test compound, the test compound was a preliminary target compound promoting angiogenesis.

[1] = 1 μM, RAW264.7 macrophages, 3 h, relative expression 2^-ΔΔCt, no drug = 1
[2] = 0.1 mM, RAW264.7 macrophages, 3 h, relative expression, no drug = 1
[3] = 0.5 mM, RAW264.7 macrophages, 3 h, relative expression, no drug = 1
[4] = 1 mM, RAW264.7 macrophages, 3 h, relative expression, no drug = 1
[5] = 2 mM, RAW264.7 macrophages, 3 h, relative expression, no drug = 1
[6] = 3 mM, RAW264.7 macrophages, 3 h, relative expression, no drug = 1

COc1ccc(CCCCO[C@H]2O[C@@H](CO)[C@H](O)[C@@H](O)[C@@H]2O)cc1 [TG-029]
fold induction at 1 µM [1]: 2.21
fold induction at 100 µM [2]: 1.51
fold induction at 500 µM [3]: 1.02
fold induction at 1000 µM [4]: 1.54
fold induction at 2000 µM [5]: 2.6
fold induction at 3000 µM [6]: 2.3

COc1ccc(CCCCS[C@@H]2O[C@H](CO)[C@@H](O)[C@H](O)[C@H]2O)cc1 [TG-048]
fold induction at 1 µM [1]: 1.43
fold induction at 100 µM [2]: 1.26
fold induction at 500 µM [3]: 4.73
fold induction at 1000 µM [4]: 11
fold induction at 2000 µM [5]: 3.81
fold induction at 3000 µM [6]: 2.19

COc1ccc(CCCCO[C@@H]2O[C@H](CO)[C@H](O)[C@H](O)[C@H]2O)cc1 [TG-030]
fold induction at 1 µM [1]: 0.43
fold induction at 100 µM [2]: 0.32
fold induction at 500 µM [3]: 0.09
fold induction at 1000 µM [4]: 0.19
fold induction at 2000 µM [5]: 0.19
fold induction at 3000 µM [6]: 0.37

COc1ccc(CN(CCO[C@@H]2O[C@H](CO)[C@@H](O)[C@H](O)[C@H]2O)C(=O)OC(C)(C)C)cc1 [TG-033]
fold induction at 1 µM (RAW264.7, 3 h): 0.95
fold induction at 100 µM (RAW264.7, 3 h): 1.87
fold induction at 500 µM (RAW264.7, 3 h): 38.9
fold induction at 1000 µM (RAW264.7, 3 h): 3.76
fold induction at 2000 µM (RAW264.7, 3 h): 0.99
fold induction at 3000 µM (RAW264.7, 3 h): 0.04

OC[C@H]1O[C@@H](OCCCCc2ccc(OCC3CC3)cc2)[C@H](O)[C@@H](O)[C@@H]1O [TG-039]
fold induction at 1 µM [1]: 1.18
fold induction at 100 µM [2]: 2.67
fold induction at 500 µM [3]: 9.43
fold induction at 1000 µM [4]: 1.7
fold induction at 2000 µM [5]: 0.3
fold induction at 3000 µM [6]: 0.18

COc1cccc(CCCCO[C@@H]2O[C@H](CO)[C@@H](O)[C@H](O)[C@H]2O)c1 [TG-004]
fold induction at 1 µM [1]: 0.9
fold induction at 100 µM [2]: 0.4
fold induction at 500 µM [3]: 0.73
fold induction at 1000 µM [4]: 1.11
fold induction at 2000 µM [5]: 4.29
fold induction at 3000 µM [6]: 2.66

CC1(C)CCOc2ccc(CCCCO[C@@H]3O[C@H](CO)[C@@H](O)[C@H](O)[C@H]3O)cc21 [TG-042]
fold induction at 1 µM [1]: 11
fold induction at 100 µM [2]: 7.25
fold induction at 500 µM [3]: 9.86
fold induction at 1000 µM [4]: 1.11
fold induction at 2000 µM [5]: 0.63
fold induction at 3000 µM [6]: 0.84

OC[C@H]1O[C@@H](OCCCCc2ccc(OCC3CCCCC3)cc2)[C@H](O)[C@@H](O)[C@@H]1O [TG-016]
fold induction at 1 µM [1]: 3.09
fold induction at 100 µM [2]: 1
fold induction at 500 µM [3]: 1.34
fold induction at 1000 µM [4]: 1.54
fold induction at 2000 µM [5]: 2.77
fold induction at 3000 µM [6]: 17.1

OC[C@H]1O[C@@H](OCCCCC2CCCCC2)[C@H](O)[C@@H](O)[C@@H]1O [TG-009]
fold induction at 1 µM [1]: 1.29
fold induction at 100 µM [2]: 1.28
fold induction at 500 µM [3]: 0.95
fold induction at 1000 µM [4]: 1
fold induction at 2000 µM [5]: 1.61
fold induction at 3000 µM [6]: 5.94

CCCCCCCCCCCCCCCCOc1ccc(CCCCO[C@@H]2O[C@H](CO)[C@@H](O)[C@H](O)[C@H]2O)cc1 [TG-043]
fold induction at 1 µM [1]: 1.16
fold induction at 100 µM [2]: 1.52
fold induction at 1000 µM [4]: 3.36
fold induction at 2000 µM [5]: 4.09
fold induction at 3000 µM [6]: 4.29

OC[C@H]1O[C@@H](OCCCCc2ccc3c(c2)OCO3)[C@H](O)[C@@H](O)[C@@H]1O [TG-008]
fold induction at 1 µM [1]: 3.34
fold induction at 100 µM [2]: 1.38
fold induction at 500 µM [3]: 1.42
fold induction at 1000 µM [4]: 0.61
fold induction at 2000 µM [5]: 6.28
fold induction at 3000 µM [6]: 5.46

COc1ccc(NCCCO[C@@H]2O[C@H](CO)[C@@H](O)[C@H](O)[C@H]2O)cc1 [TG-037]
fold induction at 1 µM (RAW264.7, 3 h): 1.3
fold induction at 100 µM (RAW264.7, 3 h): 0.62
fold induction at 500 µM (RAW264.7, 3 h): 1.77
fold induction at 1000 µM (RAW264.7, 3 h): 1.69
fold induction at 2000 µM (RAW264.7, 3 h): 1.8
fold induction at 3000 µM (RAW264.7, 3 h): 3.23

OC[C@H]1O[C@@H](OCCCCc2ccc(OCc3ccncc3)cc2)[C@H](O)[C@@H](O)[C@@H]1O [TG-019]
fold induction at 1 µM [1]: 0.74
fold induction at 100 µM [2]: 0.72
fold induction at 500 µM [3]: 1.03
fold induction at 1000 µM [4]: 5.2
fold induction at 2000 µM [5]: 7.03
fold induction at 3000 µM [6]: 2.92

COc1cc(CCCCO[C@@H]2O[C@H](CO)[C@@H](O)[C@H](O)[C@H]2O)cc(OC)c1OC [TG-007]
fold induction at 1 µM [1]: 4.38
fold induction at 100 µM [2]: 1.67
fold induction at 500 µM [3]: 1.42
fold induction at 1000 µM [4]: 2.87
fold induction at 2000 µM [5]: 0.65
fold induction at 3000 µM [6]: 0.99

O=[N+]([O-])c1ccc(CCCCO[C@@H]2O[C@H](CO)[C@@H](O)[C@H](O)[C@H]2O)cc1 [TG-011]
fold induction at 1 µM [1]: 1.75
fold induction at 100 µM [2]: 1.18
fold induction at 500 µM [3]: 1.3
fold induction at 1000 µM [4]: 0.46
fold induction at 2000 µM [5]: 1.24
fold induction at 3000 µM [6]: 0.55

COc1ccc(CCS[C@@H]2O[C@H](CO)[C@@H](O)[C@H](O)[C@H]2O)cc1 [TG-047]
fold induction at 1 µM [1]: 2.12
fold induction at 100 µM [2]: 1.93
fold induction at 500 µM [3]: 2.34
fold induction at 1000 µM [4]: 2.84
fold induction at 2000 µM [5]: 2.6
fold induction at 3000 µM [6]: 3.45

COc1ccc(CCCCCCO[C@@H]2O[C@H](CO)[C@@H](O)[C@H](O)[C@H]2O)cc1 [TG-006]
fold induction at 1 µM [1]: 3.86
fold induction at 100 µM [2]: 1.92
fold induction at 500 µM [3]: 2.48
fold induction at 1000 µM [4]: 0.7
fold induction at 2000 µM [5]: 0.48
fold induction at 3000 µM [6]: 0.44

COc1ccccc1CCCCO[C@@H]1O[C@H](CO)[C@@H](O)[C@H](O)[C@H]1O [TG-001]
fold induction at 1 µM [1]: 3.68
fold induction at 100 µM [2]: 1.65
fold induction at 500 µM [3]: 7.89
fold induction at 1000 µM [4]: 1.91
fold induction at 2000 µM [5]: 2.36
fold induction at 3000 µM [6]: 0.68
